Test results taken from patent publication US4788136A, “Diagnostic immunoassay by solid phase separation for digoxin” (priority 1987, dated 1988).

Key:
[1] = system: anti-digoxin antibodies; test: TDx Abbott Digoxin II assay, antigenicity (cross-reactivity) of cardiac glycoside analogs; assay type: binding; settings: TDx analyzer, aqueous solutions in TDx dilution buffer, observed assay concentration divided by actual analog concentration times 100
Description: (§1) The antigencity of cardiac glycoside analogs was first determined using the TDx@ analyzer and the Abbott Digoxin II assay commercially available from Abbott Laboratories, Abbott Park, Il 60064. Analogs were evaluated as aqueous solutions in TDx dilution buffer. Several analogs were also subsequently evaluated using the new digoxin assay described herein (see generally Example IV) using a ouabain triacetate solid phase prepared in accordance with Example IIB. Analogs evaluated were: [drawing 3] wherein R1 =R2 =R3 =Ac, X=O, Y1, Z1 and Y2, Z2 =a bond connecting the two carbon atoms to which they are attached (A); R1 =R2 =R3 =Ac, X=O, Y1 =OH, Z1 =H, Y2 and Z2 =a bond connecting the two carbon atoms to which they are attached (B); R1 =R2 =R3 =Ac, X=O, Y1 =Y2 =OH, Z1 =Z2 =H (C); and R1 =R2 =R3 =H, X=N, Y1 =Y2 =OH, Z1 =Z2 =H (D). Cross-reactivity was defined as the observed assay concentration divided by the actual analog concentration times 100.

[2] = system: β-galactosidase-labeled F(ab')2; test: Non-competitive assay for digoxin in serum with immobilized ouabain triacetate solid phase (standard curve)
Description: The general assay format consists of preincubation of excess β-galactosidase-labeled F(ab')2 (Example II A) with sample such that sample is quantitatively and rapidly bound to form an analyte-β-galactosidase-labeled F(ab')2 conjugate. An aliquot of this mixture is transferred to a vessel containing a ouabain triacetate-albumin-trisacryl solid phase prepared in accordance with procedure of Example II B and having a characteristic density to be easily suspended in solution yet sufficiently dense to rapidly sediment by gravity. The solid phase material rapidly captures the excess unconjugated β-galactosidase-labeled F(ab')2 and sediments. Following the capture reaction and sedimentation an aliguot containing analyte-β-galactosidase-labeled F(ab')2 is transfered to a cuvette for quantitation using a fluorogenic substrate.
Serum solutions containing 0, 0.5, 1.0, 2.0, 3.0 and 5.0 nanograms per milliliter of digoxin were each tested following the same assay protocol described below. A control was also run with zero digoxin and no solid phase material. Fifty microliters of serum sample was mixed with 25 microliters of the β-galactosidase-labeled F(ab')2 (Example II A) and 325 microliters of TDx dilution buffer. The reaction mixture was incubated at 34-35 degrees Celsius for 6 minutes and then a 60 microliter aliquot and 55 microliters of TDx dilution buffer was added to 10 mg of solid phase material (Example II B). The mixture was incubated for 10 minutes with mixing. 400 ul of TDx dilution buffer was then added to the mixture.
The mixture was allowed to rest briefly whereupon it separated into a liquid and solid phase. The β-galactosidase activity of the supernatant was measured by quantitating the production of fluorescein. The measurement was made using 10 micromolar di-(β-D-galactosyl)-fluorescein as substrate in TDx dilution buffer containing 1 mM MgCl2.

[3] = system: anti-digoxin antibodies; settings: known compounds for immobilization (background); cited from earlier work
[4] = system: β-galactosidase-labeled F(ab')2 (anti-digoxin); test: New digoxin assay (ouabain triacetate solid phase), cross-reactivity of analogs; assay type: binding, Rabbit; settings: new digoxin assay using ouabain triacetate solid phase; observed assay concentration divided by actual analog concentration times 100
Description: as §1

Row | SMILES | CROSS-REACTIVITY (%) DIGOXIN II [1] | CROSS-REACTIVITY (%) NEW ASSAY [4] | other results
1 | CC1OC(OC2C(O)CC(OC3C(O)CC(OC4CCC5(C)C(CCC6C5CC(O)C5(C)C(C7=CC(=O)NC7)CCC65O)C4)OC3C)OC2C)CC(O)C1O (centres unmarked) [Digoxin Lactam] | 0.41% |  | 
2 | C[C@H]1O[C@@H](O[C@H]2[C@@H](O)C[C@H](O[C@H]3[C@@H](O)C[C@H](O[C@H]4CC[C@@]5(C)[C@H](CC[C@@H]6[C@@H]5C[C@@H](O)[C@]5(C)[C@@H](C7=CC(=O)OC7)CC[C@]65O)C4)O[C@@H]3C)O[C@@H]2C)C[C@H](O)[C@@H]1O [Digoxin] | 100% | 100% | Fluorescence Measured Rate ([2]; digoxin 0.5 ng/mL in serum): 160; Fluorescence Measured Rate ([2]; digoxin 1.0 ng/mL in serum): 220; Fluorescence Measured Rate ([2]; digoxin 2.0 ng/mL in serum): 448; Fluorescence Measured Rate ([2]; digoxin 3.0 ng/mL in serum): 745; Fluorescence Measured Rate ([2]; digoxin 5.0 ng/mL in serum): 1231; affinity for labeled anti digoxin antibody, in words [3]: relatively high affinity
3 | CC1OC(OC2CC(O)C3(CO)C4C(O)CC5(C)C(C6=CC(=O)NC6)CCC5(O)C4CCC3(O)C2)C(O)C(O)C1O (centres unmarked) [Ouabain Lactam (D)] | 9.1 × 10^-4% |  | 
4 | CC(=O)OCC12C(=CCC3C4=CCC(C5=CC(=O)OC5)C4(C)CC(OC(C)=O)C31)CC(OC1OC(C)C(O)C(O)C1O)CC2OC(C)=O (centres unmarked) [Ouabain Triacetate (A)] | 1.6 × 10^-3% |  | 
5 | CC(=O)OCC12C(OC(C)=O)CC(OC3OC(C)C(O)C(O)C3O)CC1(O)CCC1C3=CCC(C4=CC(=O)OC4)C3(C)CC(OC(C)=O)C12 (centres unmarked) [Ouabain Triacetate (B)] | 1.5 × 10^-3% |  | 
6 | CC(=O)OCC12C(OC(C)=O)CC(OC3OC(C)C(O)C(O)C3O)CC1(O)CCC1C2C(OC(C)=O)CC2(C)C(C3=CC(=O)OC3)CCC12O (centres unmarked) [Ouabain Triacetate (C)] | 3.7 × 10^-4% | 2.2 × 10^-4% | 
7 | C[C@@H]1O[C@@H](O[C@H]2C[C@@H](O)[C@]3(CO)[C@H]4[C@H](O)C[C@]5(C)[C@@H](C6=CC(=O)OC6)CC[C@]5(O)[C@@H]4CC[C@]3(O)C2)[C@H](O)[C@H](O)[C@H]1O [Ouabain] | 2.0 × 10^-2% | 1.8 × 10^-3% | affinity for labeled anti digoxin antibody, in words [3]: relatively high affinity
